Laboratory results taken from patent US7465729B2, “Methods of treatment of menopause and perimenopause using eszopiclone” (Sepracor Inc., priority 2004, dated 2008).

Key:
[1] = test system: women with insomnia secondary to perimenopause or menopause; test: Clinical study: number of nocturnal awakenings due to hot flashes; type: in vivo; settings: 3 mg nightly, ITT; for Number of Nocturnal Awakenings due to Hot Flashes, Change from Baseline, Least Squares Means (SE) [3]: ANCOVA; for Number of Nocturnal Awakenings due to Hot Flashes, Observed Value, Least Squares Means (SE) [2]: ANOVA
Protocol: (§1) The study was aimed at observing efficacy of eszopiclone 3 mg compared to placebo in the treatment of insomnia secondary to perimenopause or menopause. The study was a multicenter, randomized, double-blind, placebo-controlled, parallel-group study. […] The primary method of analysis compared the post-randomization results between the two treatment groups.
(§2) Subjects were women with insomnia secondary to perimenopause or menopause. Subjects were perimenopausal or menopausal and had insomnia symptoms including ≧45 minutes sleep latency (SL) and total sleep time (TST) ≦6 hours. Perimenopausal/menopausal symptoms predated the onset of sleep disturbance symptoms. The patient population was predominately Caucasian (77.2%). The mean age was 49, with a range of 40-60.
(§3) A total of 410 subjects were randomized. Among them, 201 received 3 mg of eszopiclone (ESZ) nightly (at bedtime) for four weeks and 209 received matching placebo (PBO).

[2] = test system: women with insomnia secondary to perimenopause or menopause; test: Clinical study: Physician Global Assessment of perimenopausal or menopausal symptoms; type: in vivo; settings: ITT; for Physician Global Assessment, Observed Value, Mean (SD): score 1 = Very much improved to 7 = Very much worse; for Physician Global Assessment, Observed Value, Least Squares Means (SE) [1]: ANOVA
Protocol: as §1, §2, §3
A Physician Global Assessment was administered at Week 4, the end of the double-blind treatment period.

[3] = test system: women with insomnia secondary to perimenopause or menopause; test: Clinical study: discontinuation rates; type: in vivo; settings: 3 mg nightly for four weeks
Protocol: as §1, §2, §3

conscious dogs = test: Dose escalation safety study, cardiovascular and respiratory parameters; settings: acute intravenous, 3, 5 and 12 mg/kg
Protocol: To establish the safety of eszopiclone, a dose escalation study was carried out. Cardiovascular and respiratory parameters were evaluated in conscious dogs following acute intravenous administration of (R)-, (S)- or racemic zopiclone at three doses (3, 5 and 12 mg/kg).

mice = test: Antimuscarinic activity in vivo: oxotremorine induced salivation; settings: doses up to 300 mg/kg, p.o.
Protocol: Eszopiclone was evaluated for antimuscarinic activity in vivo.

muscarinic receptors = test: In vitro affinity for muscarinic receptors; type: binding

Which results are given for `CN1CCN(C(=O)O[C@H]2c3nccnc3C(=O)N2c2ccc(Cl)cn2)CC1` [Eszopiclone, (+)6-(5-chloropyrid-2-yl)-5-(4-methylpiperazin-1-yl)carbonyloxy-7-oxo-6,7-dihydro-5H-pyrrolo[3-4-b]pyrazine]?
Number of Nocturnal Awakenings due to Hot Flashes, Change from Baseline, Mean (SD) ([1]; Week 3): −0.7 (1.1); Number of Nocturnal Awakenings due to Hot Flashes, Change from Baseline, Median ([1]; Week 3): −0.4; Number of Nocturnal Awakenings due to Hot Flashes, Change from Baseline, Minimum ([1]; Week 3): −6.0; Number of Nocturnal Awakenings due to Hot Flashes, Observed Value, 25th Percentile ([1]; Week 3): 0.0; Number of Nocturnal Awakenings due to Hot Flashes, Observed Value, 75th Percentile ([1]; Week 3): 1.0; Number of Nocturnal Awakenings due to Hot Flashes, Observed Value, Maximum ([1]; Week 3): 3.0; Number of Nocturnal Awakenings due to Hot Flashes, Observed Value, Mean (SD) ([1]; Week 3): 0.5 (0.7); Number of Nocturnal Awakenings due to Hot Flashes, Observed Value, Median ([1]; Week 3): 0.0; Number of Nocturnal Awakenings due to Hot Flashes, Observed Value, Minimum ([1]; Week 3): 0.0; Number of Nocturnal Awakenings due to Hot Flashes, Change from Baseline, Least Squares Means (SE) [3] ([1]; Week 3): −0.6 (0.1); Number of Nocturnal Awakenings due to Hot Flashes, Observed Value, Least Squares Means (SE) [2] ([1]; Week 3): 0.5 (0.1); Number of Nocturnal Awakenings due to Hot Flashes, Change from Baseline, 25th Percentile ([1]; Week 4): −1.3; Number of Nocturnal Awakenings due to Hot Flashes, Change from Baseline, 75th Percentile ([1]; Week 4): 0.0; Number of Nocturnal Awakenings due to Hot Flashes, Change from Baseline, Maximum ([1]; Week 4): 2.1; Number of Nocturnal Awakenings due to Hot Flashes, Change from Baseline, Mean (SD) ([1]; Week 4): −0.8 (1.2); Number of Nocturnal Awakenings due to Hot Flashes, Change from Baseline, Median ([1]; Week 4): −0.7; Number of Nocturnal Awakenings due to Hot Flashes, Change from Baseline, Minimum ([1]; Week 4): −6.0; Number of Nocturnal Awakenings due to Hot Flashes, Observed Value, 25th Percentile ([1]; Week 4): 0.0; Number of Nocturnal Awakenings due to Hot Flashes, Observed Value, 75th Percentile ([1]; Week 4): 1.0; Number of Nocturnal Awakenings due to Hot Flashes, Observed Value, Maximum ([1]; Week 4): 3.6; Number of Nocturnal Awakenings due to Hot Flashes, Observed Value, Mean (SD) ([1]; Week 4): 0.4 (0.7); Number of Nocturnal Awakenings due to Hot Flashes, Observed Value, Median ([1]; Week 4): 0.0; Number of Nocturnal Awakenings due to Hot Flashes, Observed Value, Minimum ([1]; Week 4): 0.0; Number of Nocturnal Awakenings due to Hot Flashes, Change from Baseline, Least Squares Means (SE) [3] ([1]; Week 4): −0.7 (0.1); Number of Nocturnal Awakenings due to Hot Flashes, Observed Value, Least Squares Means (SE) [2] ([1]; Week 4): 0.4 (0.1); Physician Global Assessment, Observed Value, 25th Percentile ([2]; Visit 3 (Baseline), 3 mg group): 4.0; Physician Global Assessment, Observed Value, 75th Percentile ([2]; Visit 3 (Baseline), 3 mg group): 4.0; Physician Global Assessment, Observed Value, Maximum ([2]; Visit 3 (Baseline), 3 mg group): 7.0; Physician Global Assessment, Observed Value, Median ([2]; Visit 3 (Baseline), 3 mg group): 4.0; Physician Global Assessment, Observed Value, Minimum ([2]; Visit 3 (Baseline), 3 mg group): 0.0; Physician Global Assessment, Observed Value, Mean (SD) ([2]; Visit 3 (Baseline), 3 mg group, 0 = Not assessed): 3.7 (1.0); Physician Global Assessment, Change from Baseline, 25th Percentile ([2]; Visit 5 (Week 4), 3 mg nightly): −2.0; Physician Global Assessment, Change from Baseline, 75th Percentile ([2]; Visit 5 (Week 4), 3 mg nightly): 0.0; Physician Global Assessment, Change from Baseline, Maximum ([2]; Visit 5 (Week 4), 3 mg nightly): 6.0; Physician Global Assessment, Change from Baseline, Mean (SD) ([2]; Visit 5 (Week 4), 3 mg nightly): −1.0 (1.4); Physician Global Assessment, Change from Baseline, Median ([2]; Visit 5 (Week 4), 3 mg nightly): −1.0; Physician Global Assessment, Change from Baseline, Minimum ([2]; Visit 5 (Week 4), 3 mg nightly): −4.0; Physician Global Assessment, Observed Value, 25th Percentile ([2]; Visit 5 (Week 4), 3 mg nightly): 2.0; Physician Global Assessment, Observed Value, 75th Percentile ([2]; Visit 5 (Week 4), 3 mg nightly): 4.0; Physician Global Assessment, Observed Value, Maximum ([2]; Visit 5 (Week 4), 3 mg nightly): 6.0; Physician Global Assessment, Observed Value, Median ([2]; Visit 5 (Week 4), 3 mg nightly): 2.0; Physician Global Assessment, Observed Value, Minimum ([2]; Visit 5 (Week 4), 3 mg nightly): 1.0; Physician Global Assessment, Change from Baseline, Least Squares Means (SE) [2] ([2]; Visit 5 (Week 4), 3 mg nightly, ANCOVA): −0.9 (0.1); Physician Global Assessment, Observed Value, Least Squares Means (SE) [1] ([2]; Visit 5 (Week 4), 3 mg nightly): 2.7 (0.1); Physician Global Assessment, Observed Value, Least Squares Means (SE) [1] ([2]; Visit 5 (Week 4), 3 mg nightly, listed as ESZ): 2.7; Physician Global Assessment, Observed Value, Mean (SD) ([2]; Visit 5 (Week 4), 3 mg nightly): 2.6 (1.2); discontinuation rate [3]: 11.9%; cardiotoxicity, as evidenced by the electrocardiogram (ECG) (conscious dogs): No evidence of cardiotoxicity; effect on blood pressure (conscious dogs): dose dependent, transient decreases in blood pressure; effect on heart rate (conscious dogs): compensatory increase in heart rate; Blood gases and blood chemistries (pH, pCO2, pO2, hematocrit, and lactate) (conscious dogs; all dose groups): remained unaffected; antagonism of oxotremorine induced salivation (mice): neither (R)-, (S)-, nor racemic zopiclone significantly antagonized oxotremorine induced salivation; in vitro affinity for muscarinic receptors (muscarinic receptors): lack of in vitro affinity
